Common to all, as to assay: NCI tumour cell line growth inhibition, 48 h
For experiment [1], the system named is DMS 114 small cell lung.
Experiment [2] concerns LXFL 529 NSCLC.
For experiment [3], the system named is DLD-1 colon.
Experiment [4] relates to LOX IMVI melanoma.
Experiment [5] concerns SK-MEL-2 melanoma.
The subject of experiment [6] is KM20L2 colon.
In experiment [7] the test system is HOP-92 NSCLC.
For experiment [8], the system named is CCRF-CEM leukemia.
The subject of experiment [9] is UACC-62 melanoma.
Experiment [10] relates to NCI-H522 lung.
The subject of experiment [11] is HS 578T breast.
For experiment [12], the system named is PC-3 prostate.

Data on 28 compounds can be found in PubChem BioAssay (NCI).

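Dose response: 5 concentrations. Exposure: 48 h. Format: 96-well plates. Endpoint: linear interpolation; highest concentration if not reached. GI50 = concentration required for 50% inhibition of growth. TGI: total growth inhibition.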 Bounds are passed on as bounds.

Take `CC1CCN(c2cc(-c3cc4ccccc4o3)oc(=O)c2C#N)CC1`: the TGI in experiment [1], in experiment [2], in experiment [3], in [4], in [5] and in experiment [6] was more than 100 µM each time. The TGI was 79 µM in [7] and more than 100 µM in [8].
For `COC(=O)c1cc2ccccc2c2nc3ccccc3c(Cl)c12`, the TGI in experiment [1], in [2], in experiment [3], in experiment [4], in experiment [9] and in [5] was more than 100 µM each time. The TGI in experiment [6] was 29 µM; in experiment [7], more than 100 µM; in experiment [8], more than 100 µM; in [10], more than 100 µM.
Take `CCOc1cc(/C=C/C(=O)CC(=O)/C=C/c2ccc(OC(=O)CNCCN(CC)CC)c(OCC)c2)ccc1OC(=O)CNCCN(CC)CC`: the GI50 in experiment [11] was 2.19 µM; in experiment [12], 1.62 µM; in [4] it was 1.05 µM; in [9], 1.53 µM; in [5], 1.68 µM; in experiment [7], 1.74 µM. In addition, the results for the GI50 in experiment [8] and in experiment [10] were 0.394 µM and 1.8 µM, respectively. Moreover, the TGI in experiment [11] turned out to be 6.43 µM; in [12], 10.7 µM; in experiment [4] it was 2.44 µM; in experiment [9], 3.16 µM; in experiment [5], 3.26 µM; in experiment [7], 6.2 µM. In addition, the figures for the TGI in [8] and in experiment [10] were 1.66 µM and 5.13 µM, respectively.
On to `Cn1c(SCc2c[nH]c3ccccc23)nnc1-c1ccc(Cl)cc1Cl`, for which the TGI in experiment [11] was more than 100 µM; in experiment [12], 36.5 µM; in experiment [4] it was 20 µM; in [9], 39.3 µM; in experiment [5] it was 36.2 µM; in experiment [7] it was 53 µM. The TGI worked out at 45.4 µM in experiment [8] and 45.9 µM in [10].
In the case of `C=C1C(=O)O[C@@H]2[C@H]1C[C@H](I)[C@@]1(C)CC[C@H](O1)[C@](C)(I)CCCC(C)[C@@H]2O` (stereo not given in full), the TGI in [11] was determined as 40.1 µM; in experiment [12], 24.6 µM; in [4], 2.59 µM; in experiment [9], 16.4 µM; in experiment [5] it was 28.6 µM; in experiment [7] it was 3.52 µM. Further, the TGI in experiment [8] and in experiment [10] was 1.59 µM each time.
For `Cc1cc(NS(=O)(=O)c2ccc(NC(=O)c3ccc4nc5ccccc5c(Nc5ccc(S(=O)(=O)Nc6cc(C)on6)cc5)c4c3)cc2)no1`, the TGI in [11], in [12], in [4], in [9], in experiment [5] and in [7] was more than 50 µM each time. In addition, the TGI in experiment [8] and in experiment [10] was more than 50 µM each time.
On to `COc1ccc2nc(-c3ccc(O)cc3)ccc2c1`, for which the TGI in [1], in experiment [2], in [3], in experiment [4], in experiment [9] and in experiment [6] was more than 100 µM each time. Further, the TGI in experiment [7], in [8] and in experiment [10] was more than 100 µM in each case.
For `Clc1cccc2[nH]ncc12`, the TGI in experiment [11], in experiment [12], in experiment [4], in experiment [9], in experiment [5] and in [7] was more than 100 µM throughout. Besides, the TGI in [8] and in experiment [10] was more than 100 µM each time.
With `CSc1nc(C)cc(=O)n1C1OC(COC(C)=O)C(OC(C)=O)C(OC(C)=O)C1OC(C)=O` (stereo not given), the TGI in experiment [1], in [2], in experiment [3], in experiment [4], in [9] and in [5] was more than 100 µM each time. In addition, the TGI in experiment [6], in experiment [8] and in experiment [10] was more than 100 µM each time.
For the compound `O[C@]12c3ccccc3C1CCCCC2N1CCOCC1` (stereo not given in full), the TGI in [1], in experiment [2], in experiment [4], in [9], in experiment [5] and in experiment [6] was more than 100 µM in each case. Besides, the TGI in [8] and in experiment [10] was more than 100 µM each time.
As for `CCOC(=O)C1=C(C)N(CC(C)C)C2(O)C(OC)CC(=O)C3C(=O)N(c4ccccc4)C(=O)C132` (stereo not given), the TGI is more than 100 µM in [11]; more than 100 µM in [12]; more than 100 µM in experiment [4]; 47.6 µM in experiment [9]; 51.1 µM in experiment [5]; more than 100 µM in [7]. Moreover, the values for the TGI in experiment [8] and in experiment [10] were more than 100 µM and 34.5 µM, respectively.
As for `Clc1ccc(Cn2cc(/C=N/n3cnnc3)c3ccccc32)cc1`, the TGI in [11] was more than 100 µM; in experiment [12], more than 100 µM; in [4], more than 100 µM; in experiment [9] it was more than 100 µM; in [5] it was 82.9 µM; in experiment [7] it was 68.3 µM. The TGI in experiment [8] and in [10] was more than 100 µM throughout.
As for `Brc1ccc(-c2nc(-c3ccc(Br)cc3)n(-c3ccccc3)n2)cc1`, the TGI in experiment [11], in experiment [12], in experiment [4], in [9], in experiment [5] and in [7] was more than 100 µM throughout. The TGI in experiment [8] and in experiment [10] was more than 100 µM throughout.
Turning to `CC1=NNC(=O)[C@H]2[C@H]1CCC1[C@@H]2CC[C@]2(C)[C@@H](O)CC[C@@H]12` (stereo not given in full), the TGI in experiment [11], in experiment [12], in experiment [4], in experiment [9], in [5] and in experiment [7] was more than 100 µM each time. The TGI in [8] and in [10] was more than 100 µM in each case.
As for `Cc1cc2c3c(c1)CCCN3CCC2`, the TGI in [11], in [12], in experiment [4], in experiment [9], in experiment [5] and in experiment [7] was more than 10 µM throughout. The TGI in experiment [8] and in [10] was more than 10 µM in each case.
`COc1cccc2c1[C@H]1OC(=O)NC1CCCCC2` (stereo not given in full): the TGI in [1], in [2], in experiment [3], in experiment [4], in [9] and in experiment [5] was more than 100 µM in each case. Besides, the TGI in [6], in experiment [8] and in experiment [10] was more than 100 µM each time.
`CN(CCCNC(=O)c1c2ccc3ccccc3c2nn1C)CCCNC(=O)c1c2ccc3ccccc3c2nn1C`: the TGI came to 30.3 µM in experiment [11]; 27.5 µM in [12]; 9.18 µM in [4]; 3.76 µM in [9]; 13.3 µM in [5]; 12.7 µM in [7]. Moreover, the TGI in experiment [8] is 23.6 µM; in experiment [10] it was 19.7 µM.
In the case of `CCN(CCCl)c1cc(CN(C)C)cc(NC(=O)c2cc(C(=O)Nc3cc(CN(C)C)cc(N(CC)CCCl)c3)n(C)n2)c1`, the TGI in experiment [11] was 1.52 µM; in [12], 0.492 µM; in experiment [4], 0.26 µM; in [9], 2.36 µM; in experiment [5], 3.3 µM; in [7], 3.38 µM. Also, the TGI in experiment [8] was 0.299 µM; in experiment [10] it was 0.384 µM.
On to `Cc1cc(OC(=O)Nc2ccc(Cl)cc2)ccc1C(=S)Nc1ccccc1`, for which the TGI in experiment [11], in [12], in experiment [4], in [9], in experiment [5] and in experiment [7] was more than 100 µM each time. In addition, the TGI in [8] is 58 µM; in experiment [10] it was more than 100 µM.
`COc1cccc(/C=C2/S/C(=N/Nc3nc(C)c(C(C)=O)s3)NC2=O)c1O`: the TGI in [11] is more than 100 µM; in [12], 70.4 µM; in experiment [4] it was more than 100 µM; in experiment [9], 43.9 µM; in experiment [5], 48 µM; in experiment [7] it was 91.7 µM. For the same compound, the values for the TGI in experiment [8] and in [10] were 50.7 µM and 33.2 µM, respectively.
Turning to `Nc1ncnc2c1ncn2CCOC(c1ccccc1)P(=O)(O)O` (stereo not given), the TGI in [2], in experiment [3], in experiment [4], in experiment [9], in [5] and in [6] was more than 100 µM in each case. Besides, the TGI in [8] and in [10] was more than 100 µM in each case.
Regarding `COc1ccc2c(C(=O)c3c(C)n(CCN4CCOCC4)c4ccccc34)cccc2c1`, the TGI in experiment [11] is 40.6 µM; in experiment [12], 96.6 µM; in experiment [4] it was 45.4 µM; in [9], more than 100 µM; in experiment [5], 55.9 µM; in [7], more than 100 µM. Also, the results for the TGI in [8] and in [10] were 27.1 µM and 50.2 µM, respectively.
In the case of `CC(N)=O.[Cl][Pt][Cl].[NH-]c1ccn(C2OC(CO)C(O)C2O)c(=O)n1` (stereo not given), the TGI in experiment [11], in experiment [12], in experiment [4], in experiment [9], in experiment [5] and in experiment [7] was more than 100 µM each time. Moreover, the TGI in experiment [8] and in [10] was more than 100 µM in each case.
For the compound `CCN(CC)C(=S)SSCCO`, the GI50 in [11] is 16 µM; in [12], 14.9 µM; in experiment [4], 19.9 µM; in [9] it was 15.3 µM; in experiment [5], 19.9 µM; in experiment [7], 14.6 µM. Also, the GI50 in [8] was 14.5 µM; in experiment [10] it was 0.211 µM. The TGI in [11] is 34.7 µM; in experiment [12], 28.1 µM; in [4] it was 46.3 µM; in experiment [9], 29.2 µM; in [5] it was 39.6 µM; in experiment [7], 27.7 µM. Besides, the TGI in experiment [8] is 45.2 µM; in experiment [10], 20.3 µM.
As to `O=C(NN1C(=O)C(Cl)C1c1c(O)ccc2ccccc12)c1ccccc1O` (stereo not given), the TGI in experiment [1], in experiment [2], in [3], in experiment [4], in experiment [9] and in experiment [5] was more than 100 µM each time. For the same compound, the TGI in [8] and in experiment [10] was more than 100 µM throughout.
Take `CSC1(Cc2ccccn2)C(=O)Nc2cccc([N+](=O)[O-])c21` (stereo not given): the TGI in [11], in experiment [12], in [4], in [9], in [5] and in experiment [7] was more than 100 µM in each case. Moreover, the TGI in experiment [8] and in [10] was more than 100 µM in each case.
Regarding `CC(=O)N1c2ccccc2[C@H]2CCc3c([nH]c4ccccc34)[C@H]21`, the TGI was 57.7 µM in experiment [11]; more than 100 µM in experiment [12]; 31.8 µM in experiment [4]; 27.7 µM in experiment [9]; 74.1 µM in experiment [5]; 33.5 µM in experiment [7]. Besides, the TGI in experiment [8] is 40.2 µM; in experiment [10] it was 51.3 µM.
As for `CCOC(=O)C(C)(Cc1ccc(O)cn1)NC(=O)c1ccccc1` (stereo not given), the TGI in [11], in [12], in experiment [4], in experiment [9], in experiment [5] and in experiment [7] was more than 100 µM each time. The TGI in [8] and in experiment [10] was more than 100 µM in each case.
